This is an account of results in paper PMC8878317, “Chemogenomics identifies acetyl-coenzyme A synthetase as a target for malaria treatment and prevention” (Cell Chemical Biology, 2022).

The structures appear in SMILES notation. Read-outs that look alike come from different tables or passages of the source.

Assay [1] has as its system HepG2 cells. The assay can be described thus: HepG2 cytotoxicity. The following applies: Homo sapiens, mammalian cell cytotoxicity. It counts as cell-based.
Assay [2] deals with P. falciparum NF54-PfACS11-cKD. Description: cKD compound susceptibility assay, PfACS11 cKD line. It counts as cell-based. The following applies: 50 nM aTc vs no aTc.
The subject of assay [3] is histone acetylation in P. falciparum 3D7-T648M. The assay can be described thus: Histone acetylation Western blot, drug-selected 3D7-T648M. It counts as cell-based. The following applies: trophozoites, 3 h exposure. Background: A western blot detects proteins with antibodies after separation by electrophoresis.
Protocol: Synchronous trophozoite-stage (24-32hr post-invasion) cultures at 3–5% parasitemia and 2% hematocrit in complete medium were exposed to test compounds for 3 hr at 37°C. […] DMSO was tested at 0.1% as the vehicle-only control. Following drug exposure, parasites were isolated via saponin lysis ice-cold 0.1% saponin in phosphate-buffered saline (PBS). Isolated parasites were washed 3x in ice-cold PBS containing protease inhibitor cocktail (cOmplete mini, Roche) and lysed in 1x Laemmli Sample Buffer (Biorad) with 5% beta-mercaptoethanol (Sigma-Aldrich). Samples were heated at 99°C for 10 min before centrifugation. Equal quantities of solute were separated on Protean TGX Precast Gels (4–20% gradient) in Tris-SDS-glycine buffer, transferred to nitrocellulose membrane by iblot (Invitrogen), and blocked for 1h in tris-buffered saline (TBS) with 5% skim milk powder. Blocked membranes were probed with antibodies recognising tetra-acetylated H4 (H4ac4, Sigma-Aldrich 06–866), H4K8ac (CST #2594), H3K9ac (CST #9649) or H3 (CST #4499), at 1:1000 dilution, and PfBiP ([Shonhai et al., 2007]) (at 1:5000 dilution) in 3% milk powder TBS with 0.1% Tween 20 at 4°C overnight and with 800CW goat α-rabbit IgG (Licor) at 1:10,000 dilution. Membranes were visualised using a Licor Odyssey CLX imaging system and quantified using ImageJ.
Assay [4] deals with P. falciparum NF54-PfAcAS-cKD. The assay can be described thus: cKD compound susceptibility assay (luminescence, 72 hr), PfAcAS cKD line. The format is cell-based. The following applies: Plasmodium falciparum. The source says:
We used CRISPR-Cas9 to modify the native PfAcAS locus and install the linear pSN054 donor vector ([Nasamu et al., 2020]) that incorporates a C-terminal V5 and 2xHA-tags, a 10x aptamer array, and the TetR-DOZI expression cassette containing the blasticidin S deaminase gene, the reporter gene Renilla luciferase (RLuc), and the fusion proteins TetR-DOZI ([Ganesan et al., 2016]). The right homology region (RHR) was PCR amplified and inserted into pSN054 using the I-SceI restriction site. Fragments corresponding to the left homology region (LHR) fused to the re-codonized 3′-end of the gene (bp 2710–2991) as well as the target-specifying guide RNA sequence were synthesized using the BioXP 3200 System (SGI-DNA) and cloned into pSN054 using restriction sites FseI/AsisI and AflII, respectively. Donor vector generation was carried out via Gibson assembly, and the final construct was confirmed by restriction digests and Sanger sequencing. Primers used in this study are listed in the key resources table.
Transfection into Cas9-and T7 RNA polymerase-expressing NF54 parasites was carried out by preloading erythrocytes with the AcAS_pSN054 plasmid as described previously ([Deitsch et al., 2001]). Briefly, 50–100 μg of purified plasmid DNA were mixed with human red blood cells in 0.2 cm cuvettes and subjected to 8 square wave electroporation pulses of 365 V for 1 ms each, separated by 0.1 s. The DNA preloaded red blood cells were inoculated with schizont-stage parasites (e.g. NF54attB, NF54:pCRISPR) to achieve starting parasitemias ≤1% in RPMI 1640 Complete media. Cultures were maintained in 500 nM anhydrotetracycline (aTc; Sigma-Aldrich 37,919) and 2.5 μg/mL Blasticidin S (RPI Corp B12150–0.1). Emergence of transfectants was monitored via Giemsa smears and RLuc measurements. Clonal parasites were obtained by limiting dilution ([Rosario, 1981]).
(§1) Synchronous ring-stage, aptamer-regulated PfAcAS and control parasite lines were resuspended in varying aTc concentrations (high = 50 nM, low = 1 nM, and no aTc) and distributed into the drug plate. DMSO carrier and chloroquine (200 nM) wells served as positive and negative controls.

Assay [5] addresses PfAcAS WT (Plasmodium falciparum, UniProt C6KTB4). The assay can be described thus: PfAcAS mode of inhibition studies (EnzChek). The format is biochemical, P. falciparum. On the set-up: key to MoI (mode of inhibition), Kis/Kii,acetate / MoI (mode of inhibition), Ki,ATP / MoI (mode of inhibition), Kis,acetate / MoI (mode of inhibition), Ki,CoA: UC = uncompetitive; MI = mixed inhibition; C = competitive. How it is done:
Steady-state kinetic measurements were conducted at room temperature using a PheraStar plate reader (BMG). The first step of the reaction of PfAcAS, which produces inorganic pyrophosphate (PPi) that is converted to two molecules of inorganic phosphate using a pyrophosphatase enzyme, was continuously monitored using the EnzChek Phosphate Assay Kit, which gives an absorbance readout at 360 nm (Figure 4A) ([Webb, 1992]). […] By adding CoA, the reaction rapidly proceeds to the second step resulting in further release of pyrophosphate, making the EnzChek assay a suitable option to continuously monitor the activity of PfAcAS. Typical kinetic assays were carried out in clear, flat-bottom, polystyrene, 384-well plates (Greiner) in an 80 μL reaction volume containing 100 mM HEPES (pH7.4), 100 mM NaCl, 250 mM KCl, 50 mM MgCl2, 1 mM DTT, 0.004% Tween 20, 0.5 U/mL pyrophosphatase, 0.1 mM MESG, 0.5 U/mL PNP, 2 mM ATP, 2 mM acetate, 0.5 mM CoA and 5 nM recombinant PfAcAS WT or 10 nM recombinant PfAcAS A597V or T648M. Assays were performed by adding 40 μL of a 2-times concentrated substrate mixture including MESG to all wells, and the reactions started by adding 40 μL of a 2-times concentrated reaction mixture containing all other components. The reactions were carried out for 2 to 4 hr with absorbance readings at 360 nm every two to four minutes. Reaction rates were extracted from the linear phase of activity, usually using 10 to 20 points between times of 30 and 100 min of the reactions. Using a phosphate standard curve obtained under the same buffer conditions used for the PfAcAS reactions (Figure S5A), the rates were then converted to velocity per second, conversion of one nanomolar of phosphate, per nanomolar of enzyme, per second. The substrates Km values were determined by varying the concentration of one of the substrates at saturating concentration of the other two substrates. Steady-state data were fitted using the nonlinear, least-squares, curve-fitting programs of Sigma-Plot for Windows, version 14.0. Individual saturation curves were fit to Equation 1(Equation 1) v=VS/K+S where V is the maximal velocity, S is the substrate concentration and K is the Michaelis constant for the substrate (Km). Individual saturation curves displaying substrate inhibition were fit to Equation 2(Equation 2) v=VS/K+S×(1+S/Ks) where Ks is the substrate inhibition constant.
To determine the steady-state inhibition parameters and patterns associated with both inhibitors, PfAcAS activity was studied in the presence of variable concentrations of one substrate, ATP, acetate or CoA, fixed saturating concentration of the other two substrates (acetate and CoA, ATP and CoA, or ATP and acetate) and several fixed concentrations of inhibitor. Assay ready plates containing different concentrations of inhibitor were prepared using an Echo 550 acoustic dispenser (Labcyte Inc.). The assays were carried out as described in the previous section. […] For better comparison between both inhibitors and proteins, the ymin was fixed to zero and the ymax to 100. Inhibition data showing linear, competitive patterns in double-reciprocal plots were fit to Equation 4(Equation 4) v=VS/K(1+I/Ki)+S where Ki is the dissociation constant for the enzyme-inhibitor complex. Inhibition data showing linear, mixed inhibition patterns in double-reciprocal plots were fit to Equation 5(Equation 5) v=VS/K(1+I/Kis)+S(1+I/Kii) where Kis is the dissociation constant for the free enzyme-inhibitor complex and Kii is the dissociation constant for the enzyme-substrate-inhibitor complex. Inhibition data showing linear, uncompetitive patterns in double-reciprocal plots were fit to Equation 6(Equation 6) v=VS/K+S(1+I/Ki)

Assay [6] has as its system P. falciparum control YFP cKD line. Description: cKD compound susceptibility assay, control YFP cKD line. The format is cell-based. Conditions: Plasmodium falciparum. How it is done: as §1
[7] abbreviates: NF54, read-out: PfAcAS cKD EC50 ± SD (nM) (1nM aTc).
Where [8] appears, read: NF54, read-out: PfAcAS cKD EC50 ± SD (nM) (50nM aTc).
Setting [9] is: variable ATP, saturating acetate and CoA, linear uncompetitive, read-out: Ki versus ATP.
Setting [10] is: variable CoA, saturating ATP and acetate, read-out: Ki versus CoA.
The mark [11] stands for this setting: read-out: control cKD EC50 ± SD (nM) (0nM aTc).
Where [12] appears, read: read-out: control cKD EC50 ± SD (nM) (50nM aTc).

PfAcAS WT, sequence (C6KTB4 entry or part of it): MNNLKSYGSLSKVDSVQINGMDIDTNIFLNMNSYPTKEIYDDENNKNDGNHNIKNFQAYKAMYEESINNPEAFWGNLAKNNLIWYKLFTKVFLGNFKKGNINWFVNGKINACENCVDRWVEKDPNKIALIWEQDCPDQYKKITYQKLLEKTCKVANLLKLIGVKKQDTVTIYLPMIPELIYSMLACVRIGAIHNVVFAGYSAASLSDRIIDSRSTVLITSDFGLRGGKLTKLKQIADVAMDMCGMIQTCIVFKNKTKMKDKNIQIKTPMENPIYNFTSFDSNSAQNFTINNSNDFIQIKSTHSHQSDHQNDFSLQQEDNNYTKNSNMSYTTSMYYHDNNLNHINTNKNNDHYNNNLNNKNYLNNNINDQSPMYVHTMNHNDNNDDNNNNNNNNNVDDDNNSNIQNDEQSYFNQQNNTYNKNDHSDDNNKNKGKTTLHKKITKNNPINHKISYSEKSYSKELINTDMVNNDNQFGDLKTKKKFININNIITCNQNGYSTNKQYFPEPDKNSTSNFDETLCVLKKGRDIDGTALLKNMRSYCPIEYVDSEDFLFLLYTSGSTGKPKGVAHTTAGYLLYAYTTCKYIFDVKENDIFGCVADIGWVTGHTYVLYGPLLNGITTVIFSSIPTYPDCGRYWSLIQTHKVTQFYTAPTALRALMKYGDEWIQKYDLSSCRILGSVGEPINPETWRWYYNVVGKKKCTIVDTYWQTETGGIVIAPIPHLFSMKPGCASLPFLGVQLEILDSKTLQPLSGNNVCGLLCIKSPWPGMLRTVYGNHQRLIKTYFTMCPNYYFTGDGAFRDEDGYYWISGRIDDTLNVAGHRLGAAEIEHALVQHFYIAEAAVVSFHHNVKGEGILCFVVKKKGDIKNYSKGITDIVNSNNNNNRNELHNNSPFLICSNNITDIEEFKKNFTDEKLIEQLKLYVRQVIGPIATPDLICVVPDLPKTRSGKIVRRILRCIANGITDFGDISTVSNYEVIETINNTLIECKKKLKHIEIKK

`CCN(CC)S(=O)(=O)c1ccc(Cl)c(C(=O)Nc2ccc3nc(C)sc3c2)c1` [MMV019721]: the EC50 in assay [1] was more than 50000 nM; in assay [4] (setting [7]) it was 7 ± 1.2 nM; in assay [4] (setting [8]) it was 43 ± 8.5 nM; in assay [6] (setting [11]) it was 200 ± 61 nM; in assay [6] (setting [12]), 210 ± 80 nM. Further, in assay [2], the “effect of conditional knockdown of PfACS11 on parasite sensitivity” value is “did not increase parasite sensitivity”. The “histone acetylation in 3D7-T648M parasite line” value in assay [3] is on record as “little to no measurable effect”. Besides, the “MoI (mode of inhibition), Ki,ATP” value in assay [5] (Table S6 (MMV019721 MoI)) is “UC”. In addition, the “MoI (mode of inhibition), Ki,CoA” value in assay [5] (Table S6 (MMV019721 MoI)) is recorded as “C”. Further, the “MoI (mode of inhibition), Kis,acetate” value in assay [5] (Table S6 (MMV019721 MoI)) is recorded as “UC”. Also, the “MoI (mode of inhibition), Kis/Kii,acetate” value in assay [5] (Table S6, fourth column (head printed MMV019721 MoI)) is reported as “MI”. The Ki in assay [5] (setting [9]) came out at 200 ± 8 nM; in assay [5] (setting [10]) it was 22 ± 1 nM; in assay [5] (variable acetate, saturating ATP and CoA, linear uncompetitive, read-out: Ki versus acetate), 150 ± 10 nM.

As for `O=C(NNC(=O)c1csnn1)c1ccc(Cl)cc1` [MMV084978], the EC50 in assay [1] is more than 50000 nM; in assay [4] (setting [7]), 45 ± 4.4 nM; in assay [4] (setting [8]) it was 240 ± 64 nM; in assay [6] (setting [11]), 240 ± 29 nM; in assay [6] (setting [12]), 230 ± 23 nM. The “effect of conditional knockdown of PfACS11 on parasite sensitivity” value in assay [2] was “did not increase parasite sensitivity”. Besides, the “histone acetylation in 3D7-T648M parasite line” value in assay [3] is given as “protection”. In addition, the Kii against acetate in assay [5] (linear mixed inhibition, enzyme-substrate-inhibitor complex) turned out to be 390 ± 110 nM. The Ki in assay [5] (linear mixed inhibition, free enzyme-inhibitor complex, read-out: Kis against acetate) was 30 ± 3 nM; in assay [5] (setting [9]) it was 680 ± 26 nM; in assay [5] (setting [10]) it was 690 ± 24 nM.

What is called EC50 is the midpoint of the concentration-response curve.
